Here are results for 3 molecules from patent publication US8808717B2, “Control of ectoparasites” (priority 2007, dated 2014).

One data set concerns cotton aphids. The conditions noted are these: cited from earlier work.
The next data set deals with fish, mammals. To be noted: fish versus mammals; cited from earlier work.
Another data set has as its system tobacco budworm. The conditions noted are these: cited from earlier work.
Data set [1] has as its system ova from cat flea (Ctenocephalides felis). Nature of the data set: Activity against C. felis ova (larval emergence in treated vials). Type of data set: in vivo. The source says:
Activity Against C. Felis Ova
Evaluation of test compounds against flea ova is a commonly-used assay for the determination of commercial efficacy against these insect parasites (McTier T L et al., Evaluation of the effects of selamectin against adult and immature stages of fleas (Ctenocephalides felis felis) on dogs and cats. Vet Parasitol. 2000 Aug. 23; 91(3-4):201-12; Dryden M et al., Efficacy of a topically applied formulation of metaflumizone on cats against the adult cat flea, flea egg production and hatch, and adult flea emergence. Vet Parasitol. 2007 Dec. 15; 150(3):263-7). Compounds were dissolved in acetone and 100 μl of each solution was placed in 5 ml glass vials and allowed to air dry. Forty ova from cat flea (Ctenocephalides felis) that were less than 48 hours old as well as flea dirt (primarily adult flea fecal material and host dander) were placed in the vials. Vials were covered with paper towels to allow air exchange and incubated at 25° with 90% humidity for 5 days, and the number of larvae were counted.

The next data set relates to cabbage looper. The conditions noted are these: cited from earlier work.
A further data set concerns tobacco bud worm. To be noted: tobacco budworm; cited from earlier work.
For a further data set, the system named is southern corn rootworm. The conditions noted are these: cited from earlier work.
The conditions of data set [2]: rat versus trout liver microsomes; cited from earlier work.
Data set [3] concerns Larval-stage lone star ticks (Amblyomma americanum). Nature of the data set: Dip survival assay (larval immersion microassay) against A. americanum larvae. The conditions noted are these: submerged 30 minutes, counted after 24 hours. Format: in vivo. An excerpt: Activity Against A. Americanum Larvae in a Dip Survival Assay
Using a previously-described protocol that can effectively predict compound potency against adult ticks in the field (White, W H. et al., An in vitro larval immersion microassay for identifying and characterizing candidate acaricides. J Med Entomol. 2004 November; 41(6):1034-42), test compounds from a dimethyl sulfoxide (DMSO) stock or 2% DMSO alone were dispensed into a round-bottom 96-well plate and mixed with aqueous buffer containing 1% ethanol and 0.2% Triton X100. […] Larval-stage lone star ticks (Amblyomma americanum) were dispensed into the wells containing test compounds and submerged for 30 minutes. The ticks were subsequently dispensed into a tissue biopsy bag, which is allowed to dry for 1 hour. After drying, the bags were incubated at 25° with 95% humidity for 24 hours and the number of live and dead larvae were counted.

The subject of a further data set is mosquito larvae. The conditions noted are these: cited from earlier work.

`CC(C)(C)c1ccc(CCOc2ncnc3ccccc23)cc1` [Formula I, 4-tert-butylphenethyl quinazolin-4-yl ether]: the LC50 is 2.6 ppm in the data set with cotton aphids, 188 ppm with cabbage looper and 0.725 ppm in the data set with mosquito larvae. The toxicity result in the data set on fish, mammals is listed as “higher toxicity of the compound to fish than to mammals”. Moreover, the “activity (LC50)” value in the data set with tobacco budworm and in the data set on southern corn rootworm was “greater than 400 ppm” in each case. Besides, the “Flea larvae emerging, percent of total eggs, from 40 ova after 5 days” value (from here on “Flea larvae emerging, percent”) in [1] (10 μg per vial) was 10%; in [1] (100 μg per vial) it was 2.5%; in data set [1] (1 mg per vial), 2.5%. The entries for the “Number of flea larvae emerging from 40 ova after 5 days” value (from here on “Number of flea larvae emerging”) in data set [1] (10 μg per vial), in data set [1] (100 μg per vial) and in [1] (1 mg per vial) were 4, 1 and 1, respectively. The metabolism result in the data set with tobacco bud worm was “extensively metabolized”. Besides, the “degradation by liver microsomes” value in [2] is “degraded more extensively by rat liver microsomes than by trout liver microsomes”. The “Number of live/total tick larvae 24 hours after treatment” value in data set [3] (concentration 0.001%) is 23/80; in data set [3] (concentration 0.01%), 0/51; in [3] (concentration 0.05%), 0/48.

In the case of `CCc1nn(C)c(C(=O)NCc2ccc(C(C)(C)C)cc2)c1Cl` [Formula II, 4-chloro-5-ethyl-2-methyl-N-[(4-tert-butylphenyl)methyl]pyrazole-3-carboxamide], the “Flea larvae emerging, percent” value is recorded as 17.5% in data set [1] (10 μg per vial), 2.5% in data set [1] (100 μg per vial) and 2.5% in data set [1] (1 mg per vial). Also, the figures for the “Number of flea larvae emerging” value in data set [1] (10 μg per vial), in data set [1] (100 μg per vial) and in data set [1] (1 mg per vial) were 7, 1 and 1, respectively. Moreover, the “Number of live/total tick larvae 24 hours after treatment” value in data set [3] (concentration 0.001%) was 38/85; in [3] (concentration 0.01%), 0/77; in data set [3] (concentration 0.05%) it was 0/69.

Regarding `CCc1nn(C)c(C(=O)NCc2ccc(Oc3ccc(C)cc3)cc2)c1Cl` [Formula IV, 4-chloro-3-ethyl-1-methyl-N-[4-(p-tolyloxy)benzyl]pyrazole-5-carboxamide], the “Flea larvae emerging, percent” value in data set [1] (10 μg per vial) is given as 15%; in data set [1] (100 μg per vial) it was 0 (0%); in [1] (1 mg per vial) it was 0 (0% ). Also, the “Number of flea larvae emerging” value in data set [1] (10 μg per vial) is given as 6; in [1] (100 μg per vial), 0 (0%); in data set [1] (1 mg per vial) it was 0 (0% ). Moreover, the “Number of live/total tick larvae 24 hours after treatment” value in [3] (concentration 0.001%) is reported as 58/114; in data set [3] (concentration 0.01%), 0/79; in data set [3] (concentration 0.05%), 0/76.
